Laboratory results reported in US9028856B2, “Synergistic pesticide compositions” (priority 2008, dated 2015).

Legend:
[1] = system: Odorous House ant, Tapinoma sessile; assay: Knockdown/mortality of ant workers under continuous exposure on treated glazed tile; format: in vivo
How it was run: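 Each tile surface (about 5″×5″) was treated, left to dry overnight and tested in a minimum of three replicates.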

[2] = system: Red Imported Fire ant (RIFA), Solenopsis invicta; assay: as above; format: in vivo
Description: Treatments were allowed to dry overnight. […] Treatments were replicated minimum three times.
Treatments were allowed to dry overnight. […] Treatments were replicated a minimum of three times.

[3] = system: susceptible/normal German cockroach (Monheim strain), Blattella germanica; assay: Knockdown/mortality of male cockroaches under continuous exposure on treated glazed tile; format: in vivo
How it was run: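 Male cockroaches continuously exposed on treated glazed tile, dried overnight before exposure; at least three replicates. Knockdown/mortality scored at intervals from 5 or 10 min, over runs lasting 20 min to 24 h depending on test.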

[4] = format: physicochemical; settings: classified from Log P
[5] = system: Musca domestica, resistant strain Reichswald; assay: Efficacy of formulations on surfaces (glazed/unglazed tiles), house flies, continuous exposure; format: in vivo; settings: for % KD and Mortality 15′ / % KD and Mortality 30′ / % KD and Mortality 1 h / % KD and Mortality 2 h / % KD and Mortality 3 h / % KD and Mortality 4 h / % KD and Mortality 6 h / % KD and Mortality 24 h: Table 115, EC formulation, continuous exposure
Procedure: (§1) All surfaces were provided with talcum-coated glass rings (diameter 9.5 cm, height 5.5 cm) one day later.
(§2) The test insects were anesthetized with CO2, 20 individuals were placed onto the treated surfaces and the glass ring was covered with wire gauze ring. […]
Each test consisted of at least one replicate and any additional replicates are noted.
Test Insects: House flies (Musca domestica) of both sexes, susceptible strain WHO(N) and resistant strain Reichswald
Evaluation: Mortality was evaluated cumulatively at different times. […]
Test Insects: Culex quinquefasciatus (adults) (3 minutes exposure time according to USDA Petri Dish Method), Musca domestica (adults), susceptible and resistant strain, Blattella germanica (males), Cimex lectularius (adults) (all: continuous exposure time)
Application: The EC formulation (diluted with water 1:9) were applied as 0.85 ml solutions onto glazed tiles (15 cm×15 cm)

[6] = system: Blattella germanica (males, susceptible); assay: Efficacy of EC formulations on glazed/unglazed tiles, continuous exposure; format: in vivo; settings: EC formulation
Procedure: as §1, §2
Each test consisted of at least one replicate and any additional replicates are noted. […]
Test Insects: Culex quinquefasciatus (adults, susceptible) (3 minutes exposure time according to USDA Petri Dish Method), Musca domestica (adults, susceptible and resistant), Blattella germanica (males, susceptible) (both: continuous exposure time)
Formulations: Insecticide with or without 10% Compound A (as EC), to be diluted with water (1 part formulation+9 parts water)
Application: 1 ml of the diluted formulations was applied by pipette onto glazed tiles (15×15 cm)
Evaluation: Knock down after 3, 9 (mosquitoes only), 15, and 30 minutes, 1, 2, 3, 4 and 24 hours (mortality)

[7] = Table 60, Red Imported Fire ant, glazed tile, continuous exposure
[8] = Table 61, German cockroach (Monheim), glazed tile, continuous exposure
[9] = 30 min, Table 51, fipronil/adjuvant in acetone, glazed tile
[10] = 60 min, Table 51, fipronil/adjuvant in acetone, glazed tile
[11] = 2 hr, Table 51, fipronil/adjuvant in acetone, glazed tile
[12] = Table 51, fipronil/adjuvant in acetone, glazed tile
[13] = Table 52, fipronil/adjuvant in acetone, glazed tile
[14] = Table 53, fipronil/adjuvant in acetone, glazed tile, Monheim strain
[15] = 0.1% = 50 mg Bendiocarb/m^2 on glazed tiles
[16] = 0.1% = 50 mg imidacloprid/m^2 on glazed tiles
[17] = 0.02% = 10 mg Ethiprole/m^2 on glazed tiles

CC[S+]([O-])c1c(C#N)nn(-c2c(Cl)cc(C(F)(F)F)cc2Cl)c1N (stereo not shown) [Ethiprole (1%)]
Average % Knockdown & Mortality after 30 min ([1]; Table 59, Odorous House ant, glazed tile, continuous exposure, 30 min): 0%
Average % Knockdown & Mortality after 45 min ([1]; Table 59, Odorous House ant, glazed tile, continuous exposure, 45 min): 0%
Average % Knockdown & Mortality after 60 min ([1]; Table 59, Odorous House ant, glazed tile, continuous exposure, 60 min): 3%
Average % Knockdown & Mortality after 2 hr ([1]; Table 59, Odorous House ant, glazed tile, continuous exposure, 2 hr): 7%
Average % Knockdown & Mortality after 15 min ([1]; Table 59, Odorous House ant, glazed tile, continuous exposure, adjuvant = Compound A 1% + Compound B 0.5%, 15 min): 0%
Average % Mortality after 1 hr ([2]; Table 60, Red Imported Fire ant, glazed tile, continuous exposure, 1 hr): 0%
Average % Mortality after 1.5 hr ([2]; Table 60, Red Imported Fire ant, glazed tile, continuous exposure, 1.5 hr): 0%
Average % Mortality after 2 hr [2, 7]: 0%
Average % Mortality after 3 hr [2, 7]: 10%
Average % Mortality after 30 min ([2]; Table 60, Red Imported Fire ant, glazed tile, continuous exposure, adjuvant = Compound A 1% + Compound B 0.5%): 0%
Average % Knockdown & Mortality after 3 hr [3, 8]: 13%
Average % Knockdown & Mortality after 5 hr [3, 8]: 27%
Average % Knockdown & Mortality after 24 hr [3, 8]: 73%
Average % Knockdown & Mortality after 1 hr ([3]; Table 61, German cockroach (Monheim), glazed tile, continuous exposure, adjuvant = Compound A 1% + Compound B 0.5%, 1 hr): 0%

N#Cc1nn(-c2c(Cl)cc(C(F)(F)F)cc2Cl)c(N)c1[S+]([O-])C(F)(F)F (stereo not shown) [Fipronil (.01%)]
Average % Mortality after 30 min [1, 9]: 0%
Average % Mortality after 60 min [1, 10]: 0%
Average % Mortality after 2 hr [1, 11]: 6%
Average % Mortality after 24 hr [1, 12]: 100%
Average % Mortality after 30 min [2, 13]: 0%
Average % Mortality after 60 min [2, 13]: 0%
Average % Mortality after 2 hr [2, 13]: 0%
Average % Mortality after 3 hr [2, 13]: 0%
Average % Mortality after 24 hr [2, 13]: 100%
Average % Knockdown & Mortality after 60 min [3, 14]: 0%
Average % Knockdown & Mortality after 3 hr [3, 14]: 7%
Average % Knockdown & Mortality after 5 hr [3, 14]: 7%
Average % Knockdown & Mortality after 24 hr [3, 14]: 100%

CNC(=O)Oc1cccc2c1OC(C)(C)O2 [bendiocarb]
Likelihood of Direct Insect Cuticular Penetration [4]: Slow (classified as “SLOW” when the compound has a Log P value of about <2.0)
toxicity / efficacy of the substance alone (summary in words) ([1]; odorous house ant, glazed tile): no KD/mortality
% KD and Mortality 15′ [5, 15]: 0%
% KD and Mortality 30′ [5, 15]: 0%
% KD and Mortality 1 h [5, 15]: 0%
% KD and Mortality 2 h [5, 15]: 0%
% KD and Mortality 3 h [5, 15]: 0%
% KD and Mortality 4 h [5, 15]: 0%
% KD and Mortality 6 h [5, 15]: 0%
% KD and Mortality 24 h [5, 15]: 5%
% KD and Mortality 15′ [6, 15]: 0%
% KD and Mortality 30′ [6, 15]: 40%
% KD and Mortality 1 h [6, 15]: 60%
% KD and Mortality 2 h [6, 15]: 60%
% KD and Mortality 3 h [6, 15]: 80%
% KD and Mortality 4 h [6, 15]: 80%
% KD and Mortality 6 h [6, 15]: 80%
% KD and Mortality 24 h [6, 15]: 80%

O=[N+]([O-])NC1=NCCN1Cc1ccc(Cl)nc1 [imidacloprid]
Likelihood of Direct Insect Cuticular Penetration [4]: Slow (classified as “SLOW” when the compound has a Log P value of about <2.0)
% KD and Mortality 15′ [5, 16]: 5%
% KD and Mortality 30′ [5, 16]: 5%
% KD and Mortality 1 h [5, 16]: 5%
% KD and Mortality 2 h [5, 16]: 5%
% KD and Mortality 3 h [5, 16]: 5%
% KD and Mortality 4 h [5, 16]: 5%
% KD and Mortality 6 h [5, 16]: 5%
% KD and Mortality 24 h [5, 16]: 20%
% KD and Mortality 15′ [6, 16]: 0%
% KD and Mortality 30′ [6, 16]: 0%
% KD and Mortality 1 h [6, 16]: 20%
% KD and Mortality 2 h [6, 16]: 80%
% KD and Mortality 3 h [6, 16]: 100%
% KD and Mortality 4 h [6, 16]: 100%
% KD and Mortality 6 h [6, 16]: 100%
% KD and Mortality 24 h [6, 16]: 100%

CC[S+]([O-])c1c(C#N)nn(-c2c(Cl)cc(C(F)(F)F)cc2Cl)c1N (stereo not shown) [ethiprole]
Likelihood of Direct Insect Cuticular Penetration [4]: Fast (classified as “FAST” when it has a Log P value of about >4.0)
mortality in 2 hours ([1]; ethiprole 0.01% in the absence of the adjuvant (FIG. 53)): around 4%
mortality in 3 hours ([2]; ethiprole 0.01% in the absence of the adjuvant (FIG. 54)): < 5%
mortality from 5 to 25 hours ([3]; ethiprole 0.01% in the absence of the adjuvant (FIG. 55)): 5-15%
% KD and Mortality 15′ [5, 17]: 0%
% KD and Mortality 30′ [5, 17]: 0%
% KD and Mortality 1 h [5, 17]: 0%
% KD and Mortality 2 h [5, 17]: 0%
% KD and Mortality 3 h [5, 17]: 0%
% KD and Mortality 4 h [5, 17]: 10%
% KD and Mortality 6 h [5, 17]: 15%
% KD and Mortality 24 h [5, 17]: 60%
% KD and Mortality 15′ [6, 17]: 0%
% KD and Mortality 30′ [6, 17]: 0%
% KD and Mortality 1 h [6, 17]: 0%
% KD and Mortality 2 h [6, 17]: 80%
% KD and Mortality 3 h [6, 17]: 100%
% KD and Mortality 4 h [6, 17]: 100%
% KD and Mortality 6 h [6, 17]: 100%
% KD and Mortality 24 h [6, 17]: 100%

CC1(C)[C@H](C(=O)O[C@H](C#N)c2cccc(Oc3ccccc3)c2)[C@@H]1C=C(Br)Br [deltamethrin (1%)]
Average % Mortality after 20 min ([1]; 20 min, Table 30, aqueous deltamethrin/adjuvant, glazed tile): 43%
Average % Mortality after 60 min ([1]; 60 min, Table 30, aqueous deltamethrin/adjuvant, glazed tile): 80%
Average % Mortality after 90 min ([1]; 90 min, Table 30, aqueous deltamethrin/adjuvant, glazed tile): 90%
Average % Mortality after 2 hr ([1]; 2 hr, Table 30, aqueous deltamethrin/adjuvant, glazed tile): 93%
Average % Mortality after 10 min ([2]; 10 min, Table 31, aqueous deltamethrin/adjuvant, glazed tile): 37%
Average % Mortality after 20 min ([2]; 20 min, Table 31, aqueous deltamethrin/adjuvant, glazed tile): 100%
Average % Mortality after 40 min ([2]; 40 min, Table 31, aqueous deltamethrin/adjuvant, glazed tile): 100%
Average % Mortality after 60 min ([2]; Table 31, aqueous deltamethrin/adjuvant, glazed tile): 100%
Average % Mortality after 4 min ([3]; 4 min, Table 32, aqueous deltamethrin/adjuvant, glazed tile, Monheim strain): 27%
Average % Mortality after 8 min ([3]; 8 min, Table 32, aqueous deltamethrin/adjuvant, glazed tile, Monheim strain): 100%
Average % Mortality after 12 min ([3]; 12 min, Table 32, aqueous deltamethrin/adjuvant, glazed tile, Monheim strain): 100%
Average % Mortality after 20 min ([3]; 20 min, Table 32, aqueous deltamethrin/adjuvant, glazed tile, Monheim strain): 100%

N#Cc1nn(-c2c(Cl)cc(C(F)(F)F)cc2Cl)c(N)c1[S+]([O-])C(F)(F)F (stereo not shown) [Fipronil (.001%)]
Average % Mortality after 30 min [1, 9]: 0%
Average % Mortality after 60 min [1, 10]: 0%
Average % Mortality after 2 hr [1, 11]: 0%
Average % Mortality after 24 hr [1, 12]: 100%
Average % Mortality after 30 min [2, 13]: 0%
Average % Mortality after 60 min [2, 13]: 0%
Average % Mortality after 2 hr [2, 13]: 0%
Average % Mortality after 3 hr [2, 13]: 25%
Average % Mortality after 24 hr [2, 13]: 100%
Average % Knockdown & Mortality after 60 min [3, 14]: 0%
Average % Knockdown & Mortality after 3 hr [3, 14]: 0%
Average % Knockdown & Mortality after 5 hr [3, 14]: 0%
Average % Knockdown & Mortality after 24 hr [3, 14]: 40%

CC1(C)[C@H](C(=O)O[C@H](C#N)c2cccc(Oc3ccccc3)c2)[C@@H]1C=C(Br)Br [deltamethrin]
Likelihood of Direct Insect Cuticular Penetration [4]: Fast (classified as “FAST” when it has a Log P value of about >4.0)
% of the flies killed after 24 h ([5]; 0.02% deltamethrin in acetone on glazed tiles, with or without 1% Compound A + 0.5% Compound B): 7%
